Among the data in patent publication US9084424B2, “N-benzyl heterocyclic carboxamides” (BAYER INTELLECTUAL PROPERTY GMBH, priority 2010, dated 2015) are Efficacy and logP values, retold here.

For one data set, the system named is Pyrenophora teres. The experiment in a line: In vivo preventive test on Pyrenophora teres (barley). The settings on record: preventive spray, 500 ppm of active ingredient, evaluated 7-9 days after inoculation. In short, it runs like this:
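Young barley plants were sprayed with compound formulated in N,N-dimethylacetamide/emulsifier and diluted with water, then inoculated with P. teres spores one day later. After 48 h at 22° C., 100% humidity, plants stood in a greenhouse (~20° C., ~80% humidity); efficacy versus untreated control was scored 7-9 days post-inoculation.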

The next data set deals with Alternaria solani. The experiment in a line: In vivo preventive test on Alternaria solani (tomato). The conditions noted are these: preventive spray, 500 ppm of active ingredient, evaluated 7 days after inoculation. As to the method: In Vivo Preventive Test on Alternaria Solani (Tomato)
(§1) Solvent: 49 parts by weight of N,N-dimethylformamide
(§2) Emulsifier: 1 part by weight of alkylarylpolyglycolether
(§3) To produce a suitable preparation of active compound, 1 part by weight of active compound is mixed with the stated amounts of solvent and emulsifier, and the concentrate is diluted with water to the desired concentration.
To test for preventive activity, young plants are sprayed with the preparation of active compound at the stated rate of application. One day after this treatment, the plants are inoculated with an aqueous spore suspension of Alternaria solani. The plants remain for one day in an incubation cabinet at approximately 22° C. and a relative atmospheric humidity of 100%. Then the plants are placed in an incubation cabinet at approximately 20° C. and a relative atmospheric humidity of 96%.
The test is evaluated 7 days after the inoculation. 0% means an efficacy which corresponds to that of the untreated control while an efficacy of 100% means that no disease is observed.

The next data set deals with Sphaerotheca fuliginea. The experiment in a line: In vivo preventive test on Sphaerotheca fuliginea (cucumber). The conditions noted are these: preventive spray, 500 ppm of active ingredient, evaluated 7 days after inoculation. The procedure:
In Vivo Preventive Test on Sphaerotheca fuliginea (Cucumber)
as §1, §2, §3
To test for preventive activity, young plants are sprayed with the preparation of active compound at the stated rate of application. After the spray coating has dried on, the plants are inoculated with an aqueous spore suspension of Sphaerotheca fuliginea. The plants are then placed in a greenhouse at approximately 23° C. and a relative atmospheric humidity of approximately 70%.
The test is evaluated 7 days after the inoculation. 0% means an efficacy which corresponds to that of the untreated control, while an efficacy of 100% means that no disease is observed.

Data set [1] is described as follows: log P by HPLC on reversed-phase column (EEC Directive 79/831 Annex V.A8). Format: physicochemical. The conditions noted are these: 0.1% aqueous formic acid and acetonitrile, linear gradient 10% to 90% acetonitrile. The procedure, abridged:
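40° C; 0.1% aq. formic acid/acetonitrile, linear gradient 10→90% acetonitrile. Calibration: unbranched alkan-2-ones (C3–C16), known log P. log P from retention time, linear interpolation between neighbouring alkanones. lambda-max from UV 200–400 nm at peak maxima.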

For the next data set, the system named is Leptosphaeria nodorum. The experiment in a line: In vivo preventive test on Leptosphaeria nodorum (wheat). The settings on record: preventive spray, 500 ppm of active ingredient, evaluated 7-9 days after inoculation. The procedure:
In Vivo Preventive Test on Leptosphaeria nodorum (Wheat)
(§4) Solvent: 49 parts by weight of N,N-dimethylacetamide
(§5) Emulsifier: 1 part by weight of alkylaryl polyglycol ether
as §3
To test for preventive activity, young plants are sprayed with a preparation of active compound at the stated rate of application. One day after this treatment, the plants are inoculated with an aqueous spore suspension of Leptosphaeria nodorum. The plants remain for 48 hours in an incubation cabinet at 22° C. and a relative atmospheric humidity of 100%. Then the plants are placed in a greenhouse at a temperature of approximately 22° C. and a relative atmospheric humidity of approximately 90%.
The test is evaluated 7-9 days after the inoculation. 0% means an efficacy which corresponds to that of the untreated control, while an efficacy of 100% means that no disease is observed.
Under these conditions, good (at least 70%) to excellent protection (at least 95%) is observed at a dose of 500 ppm of active ingredient with the following compounds from table D: […]

A further data set has as its system Puccinia triticina. The experiment in a line: In vivo preventive test on Puccinia triticina (wheat). The conditions noted are these: preventive spray, 500 ppm of active ingredient, evaluated 8 days after inoculation. As to the method:
In Vivo Preventive Test on Puccinia triticina (Wheat)
as §4, §5
To produce a suitable preparation of active compound, 1 part by weight of active compound or active compound combination is mixed with the stated amounts of solvent and emulsifier, and the concentrate is diluted with water to the desired concentration.
To test for preventive activity, young plants are sprayed with the preparation of active compound or active compound combination at the stated rate of application.
After the spray coating has been dried, the plants are sprayed with a spore suspension of Puccinia triticina. The plants remain for 48 hours in an incubation cabinet at approximately 20° C. and a relative atmospheric humidity of approximately 100%.
The plants are placed in the greenhouse at a temperature of approximately 20° C. and a relative atmospheric humidity of approximately 80%.
The test is evaluated 8 days after the inoculation. 0% means an efficacy which corresponds to that of the untreated control, while an efficacy of 100% means that no disease is observed.

[2] abbreviates: HPLC, reversed-phase C 18, 40° C.
Setting [3] is: HPLC on reversed-phase column (C 18), 40° C.

Take `CC(c1ccccc1Cl)N(C)C(=S)c1c(C(F)F)nn(C)c1F` (racemic) [Example 18]: the Efficacy with Pyrenophora teres came to 100%; in the data set with Alternaria solani, 95%; in the data set with Sphaerotheca fuliginea it was 90%; with Leptosphaeria nodorum, 95%. Further, the logP (as a rule, a log measure of how a compound divides between an organic and an aqueous phase) in data set [1] (setting [2]) is recorded as 3.44.

With `CC(c1ccc(Oc2ccccc2)cc1)N(C)C(=O)c1c(C(F)F)nn(C)c1F` (racemic) [Example 154], the Efficacy with Pyrenophora teres was 100%; in the data set on Alternaria solani, 95%; in the data set with Leptosphaeria nodorum, 70%. For the same compound, the logP in data set [1] (setting [3]) was 3.59.

Take `Cn1nc(C(F)F)c(C(=O)N(Cc2ccc(Cl)cc2Cl)C2CCC2)c1Cl` [Example 30]: the Efficacy with Pyrenophora teres worked out at 100%; in the data set on Leptosphaeria nodorum it was 90%. The logP in data set [1] (setting [2]) was 4.39.

Turning to `Cn1nc(C(F)F)c(C(=O)N(Cc2ccc(Cl)cc2Cl)C2CCC2)c1F` [Example 31], the Efficacy with Pyrenophora teres is given as 100%; in the data set on Leptosphaeria nodorum, 80%. In data set [1] (setting [2]), this compound registered a logP of 4.19.

Take `Cn1nc(C(F)F)c(C(=O)NC(C)(C)c2ccc(Cl)cc2Cl)c1F` [Example 39]: the Efficacy in the data set with Pyrenophora teres was 95%; with Alternaria solani, 70%; with Sphaerotheca fuliginea it was 95%; with Leptosphaeria nodorum it was 90%. This compound registered a logP in data set [1] (setting [2]) of 4.39.

Turning to `CC(NC(=S)c1c(C(F)F)nn(C)c1Cl)c1ccc(Cl)cc1Cl` (stereo not drawn) [Example 44], the results for the Efficacy in the data set on Pyrenophora teres, in the data set on Alternaria solani and with Leptosphaeria nodorum were 100%, 100% and 89%, respectively. This compound also registered a logP in data set [1] (setting [2]) of 3.99.

With `CON(C(=O)c1c(C(F)F)nn(C)c1F)C(C)c1ccc(Cl)cc1Cl` (stereo not drawn) [Example 45], the Efficacy in the data set with Pyrenophora teres was found to be 100%; in the data set with Sphaerotheca fuliginea, 100%; in the data set with Leptosphaeria nodorum it was 95%. In data set [1] (setting [2]), this compound displayed a logP of 3.65.

On to `CC(c1cc(Cl)ccc1Cl)N(C)C(=O)c1c(C(F)F)nn(C)c1F` (stereo not drawn) [Example 56], for which the Efficacy with Pyrenophora teres came out at 100%; with Alternaria solani, 100%; in the data set on Sphaerotheca fuliginea, 95%; in the data set on Leptosphaeria nodorum, 70%. This compound came in with a logP in data set [1] (setting [2]) of 3.15.

On to `CC(C)c1ccccc1CNC(=O)c1c(C(F)F)nn(C)c1F` [Example 74], for which the Efficacy in the data set on Pyrenophora teres was 100%; in the data set with Alternaria solani, 95%; in the data set with Sphaerotheca fuliginea it was 95%; in the data set with Leptosphaeria nodorum, 80%. This compound also returned a lipophilicity (logP) in data set [1] (setting [2]) of 3.02.

Regarding `CON(Cc1ccccc1C(C)C)C(=O)c1c(C(F)F)nn(C)c1F` [Example 76], the Efficacy with Alternaria solani is 94%; in the data set with Sphaerotheca fuliginea, 93%; with Leptosphaeria nodorum, 89%. This compound also yielded a logP in data set [1] (setting [2]) of 3.37.

As for `CC(C)c1ccccc1CN(CC(F)F)C(=O)c1c(C(F)F)nn(C)c1F` [Example 78], the Efficacy in the data set on Pyrenophora teres worked out at 100%; in the data set with Alternaria solani, 100%; in the data set on Sphaerotheca fuliginea, 93%. This compound showed a logP in data set [1] (setting [2]) of 3.49.

For the compound `CC(C)c1ccccc1CNC(=O)c1c(C(F)F)nn(C)c1Cl` [Example 79], the Efficacy is on record as 95% with Pyrenophora teres and 94% in the data set with Leptosphaeria nodorum. This compound also had a lipophilicity (logP) in data set [1] (setting [2]) of 3.19.

As for `CC(NC(=O)c1c(C(F)F)nn(C)c1Cl)c1ccccc1C(F)(F)F` (stereo not drawn) [Example 82], the Efficacy came to 95% in the data set with Pyrenophora teres, 100% in the data set on Alternaria solani and 94% in the data set with Sphaerotheca fuliginea. The same compound showed a logP in data set [1] (setting [2]) of 3.11.

Regarding `CC(NC(=O)c1c(C(F)F)nn(C)c1F)c1ccccc1C(F)(F)F` (stereo not drawn) [Example 84], the Efficacy in the data set with Pyrenophora teres turned out to be 100%; in the data set on Alternaria solani, 100%; with Sphaerotheca fuliginea, 90%. The compound further displayed a logP in data set [1] (setting [2]) of 2.96.

For the compound `CCN(Cc1c(Cl)cccc1C(F)(F)F)C(=O)c1c(C(F)F)nn(C)c1F` [Example 91], the results for the Efficacy with Pyrenophora teres, in the data set on Alternaria solani and in the data set on Sphaerotheca fuliginea were 95%, 100% and 95%, respectively. The same compound returned a logP in data set [1] (setting [2]) of 3.22.

As for `C=CCN(Cc1ccccc1[Si](C)(C)C)C(=O)c1c(C(F)F)nn(C)c1F` [Example 100], the Efficacy with Puccinia triticina and in the data set on Alternaria solani was 80% throughout. Moreover, the logP in data set [1] (setting [2]) is reported as 4.27.

For the compound `CN(Cc1ccccc1[Si](C)(C)C)C(=O)c1c(C(F)F)nn(C)c1F` [Example 103], the Efficacy stood at 70% with Pyrenophora teres, 90% in the data set with Alternaria solani and 91% in the data set with Sphaerotheca fuliginea. This compound yielded a logP in data set [1] (setting [2]) of 3.78.

For the compound `Cn1nc(C(F)F)c(C(=O)NCc2ccccc2SC(F)(F)F)c1Cl` [Example 106], the results for the Efficacy in the data set on Puccinia triticina and in the data set on Pyrenophora teres were 80% and 90%, respectively. For the same compound, the logP in data set [1] (setting [3]) is 3.29.

Take `Cn1nc(C(F)F)c(C(=O)NC(C)(C)c2cc(Cl)cc(Cl)c2)c1Cl` [Example 112]: the Efficacy was 95% with Pyrenophora teres, 80% in the data set on Alternaria solani and 95% in the data set on Sphaerotheca fuliginea. Besides, in data set [1] (setting [3]), the lipophilicity (logP) worked out at 3.73.

In the case of `CC(c1cc(Cl)cc(Cl)c1)N(C)C(=O)c1c(C(F)F)nn(C)c1Cl` (stereo not drawn) [Example 116], the values for the Efficacy with Pyrenophora teres, in the data set on Alternaria solani and in the data set with Sphaerotheca fuliginea were 100%, 95% and 75%, respectively. Moreover, the logP in data set [1] (setting [3]) amounted to 3.65.

`CC(c1cc(Cl)cc(Cl)c1)N(C)C(=S)c1c(C(F)F)nn(C)c1F` (stereo not drawn) [Example 118]: the Efficacy in the data set on Pyrenophora teres is listed as 100%; in the data set with Alternaria solani, 100%; in the data set on Sphaerotheca fuliginea, 95%; with Leptosphaeria nodorum it was 70%. The same compound registered a logP in data set [1] (setting [3]) of 4.24.

In the case of `Cn1nc(C(F)F)c(C(=O)NC2(c3ccc(Cl)c(C(F)(F)F)c3)CC2)c1Cl` [Example 126], the figures for the Efficacy with Puccinia triticina and with Pyrenophora teres were 78% and 95%, respectively. In data set [1] (setting [3]), this compound came in with a logP of 3.41.

Regarding `Cn1nc(C(F)F)c(C(=O)NCc2ccc(C(C)(C)C)cc2)c1F` [Example 135], the log partition coefficient (logP) in data set [1] (setting [3]) is 3.42. Also, the Efficacy in the data set with Leptosphaeria nodorum was 75%.

`Cn1nc(C(F)F)c(C(=O)NCc2ccc(C(C)(C)C)cc2)c1Cl` [Example 136] had a logP in data set [1] (setting [3]) of 3.58. The Efficacy in the data set on Leptosphaeria nodorum was determined as 70%.

In the case of `CN(Cc1ncc(Cl)cc1Cl)C(=O)c1c(C(F)F)nn(C)c1F` [Example 179], the figures for the Efficacy in the data set with Pyrenophora teres, in the data set on Alternaria solani and with Leptosphaeria nodorum were 100%, 90% and 70%, respectively. In data set [1] (setting [3]), this compound returned a logP of 2.53.

In the case of `Cn1nc(C(F)F)c(C(=O)N(Cc2ncc(Cl)cc2Cl)C2CCCC2)c1Cl` [Example 184], the Efficacy in the data set on Puccinia triticina is reported as 70%. In addition, in data set [1] (setting [3]), the logP was 4.11.

With `CC(c1ncc(Cl)cc1Cl)N(C(=O)c1c(C(F)F)nn(C)c1F)C1CCCC1` (stereo not drawn) [Example 187], the Efficacy is given as 90% with Pyrenophora teres and 80% with Leptosphaeria nodorum. In data set [1] (setting [3]), the logP stood at 4.44.

`CCC(NC(=O)c1c(C(F)F)nn(C)c1Cl)c1ccc(Cl)cc1Cl` (stereo not drawn) [Example 191]: the figures for the Efficacy in the data set with Pyrenophora teres, in the data set with Alternaria solani and in the data set on Sphaerotheca fuliginea were 100%, 95% and 100%, respectively. The compound also registered a logP in data set [1] (setting [3]) of 3.79.

Take `CCC(NC(=O)c1c(C(F)F)nn(C)c1F)c1ccc(Cl)cc1Cl` (stereo not drawn) [Example 192]: the Efficacy worked out at 100% in the data set on Pyrenophora teres, 95% in the data set with Alternaria solani and 100% in the data set on Sphaerotheca fuliginea. The logP in data set [1] (setting [3]) is recorded as 3.61.
